Earlier results in patent US10874098B2, “Organ preservation composition” (TX Innovations B.V., priority 2015, dated 2020).

Experiments:
[1] = system: lung ischemia-reperfusion injury after lung transplantation; conditions: intraperitoneal treatment of the donor animal three days before harvesting

| Compound | stability in aqueous solutions | preservation of the transplanted lung [1] |
| --- | --- | --- |
| C[C@H](N)C(=O)O [L-alanine] | spontaneously degrade |  |
| NCCS(=O)(=O)O [taurine] |  | preservation of the transplanted lung in respect to histopathological and biochemical findings |
| L-alanine-L-glutamine | more stable in aqueous solutions and does not spontaneously degrade |  |
